According to US8703483B2, “Reagents and methods for using human embryonic stem cells to evaluate toxicity of pharmaceutical compounds and other chemicals” (Wisconsin Alumni Research Foundation, priority 2006, dated 2014):

Test system: human embryonic stem cells
Test: Metabolite profiling (LC/ESI-TOF mass spectrometry) of extracellular media of hESCs treated with alcohol
Type: cell-based
Conditions: ETOH 0.3
Text: Binned masses were annotated in silico by querying the neutral masses in several different databases. These databases included Metlin, Biological Magnetic Resonance Data Bank (BMRB), NIST Chemistry WebBook, and the Human Metabolome Database. A mass was considered identified when its neutral mass was within 10 ppm of a known compound annotated in one of the databases listed above.

## CCO [ETOH]
4 D
  Fold: Unknown, mass 268.2487, RT 42.3656: −1.517 fold
  Fold: Unknown, mass 284.9798, RT 5.69776: −1.2223 fold
  Fold: Unknown, mass 286.1519, RT 14.88092: −1.862 fold
  Fold: Unknown, mass 293.1952, RT 66.86661: −2.154 fold
  Fold: Unknown, mass 293.9773, RT 4.014175: −2.267 fold
  Fold: Unknown, mass 294.1535, RT 20.67831: −1.422 fold
  Fold: Unknown, mass 295.1521, RT 8.967061: 1.467 fold
  Fold: Unknown, mass 301.1345, RT 7.719471: 2.678 fold
  Fold: Unknown, mass 315.6732, RT 26.51229: −2.865 fold
  Fold: Unknown, mass 322.1166, RT 23.90107: −2.4215 fold
  Fold: Unknown, mass 332.1367, RT 20.72194: −2.077 fold
  Fold: Unknown, mass 340.9252, RT 5.033976: 2.625 fold
  Fold: Unknown, mass 353.2765, RT 3.85935: 4.904 fold
  Fold: Unknown, mass 365.1606, RT 20.16372: −1.925 fold
  Fold: Unknown, mass 375.1886, RT 26.07722: −4.751 fold
  Fold: Unknown, mass 375.1898, RT 11.47109: 2.132 fold
  Fold: Unknown, mass 383.1721, RT 15.20829: 3.377 fold
  Fold: Unknown, mass 387.0812, RT 19.97914: −1.699 fold
  Fold: Unknown, mass 388.2349, RT 46.346: −1.532 fold
  Fold: Unknown, mass 393.1886, RT 19.69092: −2.059 fold
  Fold: Unknown, mass 396.1687, RT 6.259963: 2.422 fold
  Fold: Unknown, mass 403.1984, RT 17.27421: −2.303 fold
  Fold: Unknown, mass 417.2338, RT 33.09057: −1.78 fold
  Fold: Unknown, mass 417.2386, RT 21.14975: −1.573 fold
  Fold: Unknown, mass 420.0513, RT 13.35295: −1.902 fold
  Fold: Unknown, mass 421.2201, RT 27.46219: −2.273 fold
  Fold: Unknown, mass 429.2533, RT 18.03482: −2.201 fold
  Fold: Unknown, mass 443.2339, RT 30.87201: 2.171 fold
  Fold: Unknown, mass 443.3216, RT 67.0705: 1.688 fold
4 D, retention time 3.646902
  Fold, Unknown metabolite, Mass 994.0917: 1.605
4 D, retention time 3.680188
  Fold, Unknown metabolite, Mass 980.075: 1.481
4 D, retention time 3.705141
  Fold, Unknown metabolite, Mass 1008.072: 1.416
4 D, retention time 4.613879
  Fold, Unknown metabolite, Mass 820.8181: −1.571
4 D, retention time 4.936704
  Fold, Unknown metabolite, Mass 611.8727: 2.01
4 D, retention time 5.177162
  Fold, Unknown metabolite, Mass 1038.786: 1.588
4 D, retention time 5.399211
  Fold, Unknown metabolite, Mass 921.0025: 1.945
4 D, retention time 5.742094
  Fold, Unknown metabolite, Mass 555.8505: −1.3396
4 D, retention time 5.8905
  Fold, Unknown metabolite, Mass 1040.323: −1.479
4 D, retention time 5.891069
  Fold, Unknown metabolite, Mass 509.6704: 1.468
4 D, retention time 5.903169
  Fold, metabolite Ethanesulfonic acid, Mass 579.2519: −2.112
4 D, retention time 5.903429
  Fold, Unknown metabolite, Mass 646.7084: 2.946
4 D, retention time 5.918027
  Fold, Unknown metabolite, Mass 732.007: 1.761
4 D, retention time 8.787827
  Fold, Unknown metabolite, Mass 658.2544: −3.21
4 D, retention time 13.78553
  Fold, Unknown metabolite, Mass 502.2258: 1.866
4 D, retention time 14.9927
  Fold, Unknown metabolite, Mass 566.2265: 1.624
4 D, retention time 15.78741
  Fold, Unknown metabolite, Mass 555.2406: 2.471
4 D, retention time 16.90923
  Fold, Unknown metabolite, Mass 577.2825: −8.917
4 D, retention time 18.36887
  Fold, Unknown metabolite, Mass 505.2616: 2.009
4 D, retention time 21.72729
  Fold, Unknown metabolite, Mass 489.2127: 2.372
4 D, retention time 22.95657
  Fold, Unknown metabolite, Mass 462.2217: 1.936
4 D, retention time 23.87065
  Fold, metabolite L-Oleandrosyl-oleandolide, Mass 530.314: 2.212
4 D, retention time 24.7039
  Fold, Unknown metabolite, Mass 574.3397: 1.524
4 D, retention time 25.14927
  Fold, metabolite L-Urobilinogen, Mass 596.3543: 1.545
4 D, retention time 26.7452
  Fold, Unknown metabolite, Mass 661.3846: 1.547
4 D, retention time 29.86415
  Fold, Unknown metabolite, Mass 447.2509: −1.858
4 D, retention time 30.28867
  Fold, Unknown metabolite, Mass 478.2761: 1.51
4 D, retention time 30.37291
  Fold, metabolite glucuronide, Mass 471.1928: 2.726
4 D, retention time 30.45343
  Fold, Unknown metabolite, Mass 449.2653: −2.414
4 D, retention time 30.72707
  Fold, Unknown metabolite, Mass 471.7804: −3.441
4 D, retention time 31.22083
  Fold, Unknown metabolite, Mass 510.8202: 2.502
4 D, retention time 31.97996
  Fold, Unknown metabolite, Mass 559.8329: −2.566
4 D, retention time 32.08734
  Fold, Unknown metabolite, Mass 635.4065: 1.395
4 D, retention time 32.50661
  Fold, Unknown metabolite, Mass 531.2876: 2.361
4 D, retention time 32.67372
  Fold, Unknown metabolite, Mass 603.3535: −2.94
4 D, retention time 33.51823
  Fold, Unknown metabolite, Mass 460.9391: −3.602
4 D, retention time 33.68866
  Fold, Unknown metabolite, Mass 619.3409: 2.126
4 D, retention time 34.60124
  Fold, Unknown metabolite, Mass 796.9917: 1.689
4 D, retention time 35.028
  Fold, Unknown metabolite, Mass 751.4193: 1.845
4 D, retention time 35.58454
  Fold, Unknown metabolite, Mass 531.3191: −3.0409
4 D, retention time 40.84822
  Fold, metabolite Neu5Acalpha2-3Galbeta1-4Glcbeta-Sp, Mass 702.2497: −2.216
4 D, retention time 46.57666
  Fold, Unknown metabolite, Mass 518.3914: 2.289
4 D, retention time 47.76987
  Fold, Unknown metabolite, Mass 731.0954: −3.25
4 D, retention time 47.90467
  Fold, Unknown metabolite, Mass 576.096: 1.558
4 D, retention time 51.58546
  Fold, Unknown metabolite, Mass 444.2237: 2.03
4 D, retention time 51.6158
  Fold, Unknown metabolite, Mass 468.2002: 1.92
4 D, retention time 51.73057
  Fold, Unknown metabolite, Mass 526.2773: 2.715
4 D, retention time 54.8719
  Fold, Unknown metabolite, Mass 446.0431: 1.934
4 D, retention time 66.31491
  Fold, Unknown metabolite, Mass 531.3736: 2.874
4 D, retention time 66.73744
  Fold, Unknown metabolite, Mass 487.3472: 2.878
4 D, retention time 71.36012
  Fold, Unknown metabolite, Mass 528.3631: 2.361
4 D, retention time 88.02533
  Fold, Unknown metabolite, Mass 556.3971: −2.384
24 H
  Fold: 1,3-Dimethyl-8-isoquinolinol, mass 173.084, RT 20.23014: −1.44 fold
  Fold: 3,4-Dihydroxybutyric acid, mass 129.0452, RT 16.73904: 1.796 fold
  Fold: 3-Methoxytyramine / Phenylephrine, mass 167.0941, RT 23.6763: −2.83 fold
